# According to US7186831B2, “5-halo-2-alkyl[1,2,4]triazolo[1,5-a]pyrimidin-7-amines” (priority 2001, dated 2007):
# Test: log P by HPLC
# Format: physicochemical
# Details: EEC directive 79/831 Annex V. A8 by HPLC (gradient method, acetonitrile/0.1% aqueous phosphoric acid)
row,logP,Structure (SMILES)
1,3.6,CCCN(CC1CCCO1)c1c(-c2ccc(F)cc2F)c(Cl)nc2nc(C)nn12 (centres unmarked) [compound 357]
2,2.95,Cc1nc2nc(Cl)c(-c3c(F)cccc3Cl)c(NCC3CC3)n2n1 [compound 263]
3,3.74,Cc1nc2nc(Cl)c(-c3ccc(F)cc3F)c(N3CCCC(C)C3)n2n1 (centres unmarked) [compound 286]
4,1.12,Cc1nc2nc(Cl)c(-c3c(F)cccc3F)c(N3CCN(C)CC3)n2n1 [compound 324]
5,4.36,CC(C)CN(C)c1c(-c2c(F)cc(F)cc2F)c(Cl)nc2nc(C3CC3)nn12 [compound 467]
6,4.29,CN(CC1CC1(Cl)Cl)c1c(-c2ccccc2Cl)c(Cl)nc2nc(C3CC3)nn12 (centres unmarked) [compound 508]
7,2.94,Cc1nc2nc(Cl)c(-c3ccc(F)cc3F)c(N3CC(C)OC(C)C3)n2n1 (centres unmarked) [compound 455]
8,2.8,CCOC(=O)CN(C)c1c(-c2ccc(F)cc2F)c(Cl)nc2nc(C)nn12 [compound 410]
9,3.43,Fc1cc(F)c(-c2c(Cl)nc3nc(C4CC4)nn3c2NCC2CC2)c(F)c1 [compound 465]
10,1.18,Cc1nc2nc(Cl)c(-c3c(F)cccc3F)c(N3CCC(N(C)C)C3)n2n1 (centres unmarked) [compound 306]
11,4.41,CC(C)CN(C)c1c(-c2ccccc2Cl)c(Cl)nc2nc(C3CC3)nn12 [compound 497]
12,2.59,Cc1nc2nc(Cl)c(-c3ccccc3F)c(NOC3CCCCO3)n2n1 (centres unmarked) [compound 375]
13,3.28,Cc1nc2nc(Cl)c(-c3ccccc3F)c(NOCc3cccc(Cl)c3)n2n1 [compound 367]
14,4.26,CN(CC1CC1(Cl)Cl)c1c(-c2c(F)cc(F)cc2F)c(Cl)nc2nc(C3CC3)nn12 (centres unmarked) [compound 509]

# Same assay, conditions: HPLC, gradient method, acetonitrile/0.1% aqueous phosphoric acid; EEC directive 79/831 Annex V. A8
row,Structure (SMILES),logP
1,Cc1nc2nc(Cl)c(-c3c(F)cc(F)cc3F)c(NCC#N)n2n1 [compound 18],2.02
2,Cc1nc2nc(Cl)c(-c3c(F)cc(F)cc3F)c(N3Cc4ccccc4CO3)n2n1 [compound 168],3.73
3,Fc1cc(F)c(-c2c(Cl)nc3nc(C(F)(F)F)nn3c2N2CCOCC2)c(F)c1 [compound 34],3.22
4,Cc1nc2nc(Cl)c(-c3c(F)cccc3F)c(N3CCOCC3)n2n1 [compound 176],2.2
5,CCOC(=O)CN(C)c1c(-c2c(F)cc(F)cc2F)c(Cl)nc2nc(C)nn12 [compound 150],2.8
6,Fc1cc(F)c(-c2c(Cl)nc3nc(C(F)(F)F)nn3c2NC2CCCC2)c(F)c1 [compound 32],4.25

# Further lines, results first:
row,logP,Structure (SMILES)
1,4.08,Fc1ccc(-c2c(Cl)nc3nc(C4CC4)nn3c2N2CCC(Br)CC2)c(F)c1 [compound 732]
2,4.51,CC(C)CN(C)c1c(-c2ccc(F)cc2Cl)c(Cl)nc2nc(C3CC3)nn12 [compound 627]
3,3.3,C=CCN(CC)c1c(-c2c(F)cccc2F)c(Cl)nc2nc(C)nn12 [compound 568]
4,3.63,CC1CN(c2c(-c3ccc(F)cc3F)c(Cl)nc3nc(C4CC4)nn23)CC(C)O1 (centres unmarked) [compound 736]
5,3.59,C=C(C)CNc1c(-c2ccc(F)cc2Cl)c(Cl)nc2nc(C3CC3)nn12 [compound 626]
6,4.17,CC1C=CC(C)N1c1c(-c2c(F)cc(F)cc2F)c(Cl)nc2nc(C3CC3)nn12 (centres unmarked) [compound 582]
7,3.57,CCC(C)Nc1c(-c2ccc(F)cc2F)c(Cl)nc2nc(C3CC3)nn12 (centres unmarked) [compound 647]
8,1.65,CN1CCN(c2c(-c3ccc(F)cc3F)c(Cl)nc3nc(C(F)(F)F)nn23)CC1 [compound 807]
9,3.32,Fc1cccc(F)c1-c1c(Cl)nc2nc(C3CC3)nn2c1N1CC=CCO1 [compound 770]
10,3.29,CN(C)Nc1c(-c2ccc(F)cc2Cl)c(Cl)nc2nc(C3CC3)nn12 [compound 619]
11,2.57,OC1CCCN(c2c(-c3ccc(F)cc3F)c(Cl)nc3nc(C4CC4)nn23)C1 (centres unmarked) [compound 614]
12,4.42,CCN(Cc1ccco1)c1c(-c2ccc(F)cc2F)c(Cl)nc2nc(C(F)(F)F)nn12 [compound 549]
